Source: publication PMC7311426, “An amphipathic peptide with antibiotic activity against multidrug-resistant Gram-negative bacteria” (Nature Communications, 2020)
Converted amounts (≈) assume the structure as drawn. Like-named read-outs stand apart in the source and are kept apart here. Residues, ends and D or L forms follow the SMILES beside them.

What was measured:
[1] = test system: E. coli (AID#172 & ATCC 25922); experiment: microbe, parasite or virus in culture; assay type: cell-based, Escherichia coli; conditions: for MIC: Escherichia coli
Description: (§1) The test media was cation-adjusted MHB (CAMHB, Becton Dickinson) supplemented with 2% Noble Agar (Becton Dickinson) and additionally for AA139 with 0.1% BSA. The agar dilution MIC values were determined as recommended by Clinical and Laboratory Standards Institute (CLSI)[47]. […] The inoculum for the spontaneous mutation plates targeted 10^9 to 10^10 colony-forming units (CFU) per plate. The viable count of each suspension was determined by plating serial ten-fold dilutions onto MHB/NA in duplicate. In addition, agar plates without drug were inoculated as positive controls. Plates were inspected for growth at both 24 and 48 h. Colony counts were determined manually. Using the counts at 48 h, the spontaneous mutation frequency was calculated using the following equation: (average number of colonies from duplicate selection plates)/(total number of cells inoculated onto each plate). If there were no colonies on the antibiotic selection plates, the spontaneous mutation frequency was reported as less than the frequency observed with one colony to indicate that the spontaneous mutation frequency was less than the limit of detection (one CFU).

E. coli = test system: E. coli; parameters: method as in Hasman H, et al. Euro. Surveill. (2015) 20:49; conditions: E. coli ESBL20150072, mcr-1 pos; ESBL; CAMHB; comparator antibiotics; ref Hasman H, et al. Euro. Surveill. (2015) 20:49; cited from earlier work
[2] = SPR binding to model membrane lipids; parameters: species or system E. coli; conditions: for Binding to DMPC with lipid A versus DMPC alone (SPR): 1 µM and 10 µM, 100 × RU/MW at t = 180 s, n = 3, Student's t-test; for SPR response, Difference (Mean1 - Mean2): DMPC minus 10% lipid A-DMPC, multiple t-tests; for SPR response, Mean2 (10% lipid A-DMPC): mean of n = 3
Description: SPR experiments were performed on a Biacore T200 using an L1 sensor chip as previously described. Small unilamellar vesicles (SUVs) were prepared in PBS by sonication and extrusion. Lipids were dissolved in ethanol-free chloroform in 25 mL round-bottom flasks. 10% (mol/mol) of E. coli lipid A, diphosphoryl (Sigma-Aldrich, Cat # L5399) was added into 1,2-dimyristoyl-sn-glycero-3-phosphocholine (DMPC) (Auspep, Cat # 850345P) solution to make lipid A–DMPC mixtures, which were then deposited as a thin film by removal of the solvent (chloroform) under reduced pressure on a rotary evaporator and dried under high vacuum for at least 2 h. PBS was then added into each flask to give a 1 mM (DMPC) suspension, which was sonicated 5 min for five times. […] The SUVs were then injected into the flow cells of the L1 sensor chip for 2000 s at a low flow rate of 2 μL min^−1 to form a bilayer membrane model on the chip surface. Then, a series of peptide solutions (30–0.33 μM in 3-fold dilution), was injected across the flow cells at a flow rate of 30 μL min^−1, having an injection phase of 180 s, and a dissociation phase of 300 s. The binding responses (RU) were normalized by molecular weight (MW) of each peptide. The equation 100 × RU/MW was used for normalization.

[3] = test system: P. aeruginosa (UNT138-1 & ATCC 27853); experiment: microbe, parasite or virus in culture; assay type: cell-based, Pseudomonas aeruginosa
Description: as §1

P. aeruginosa = experiment: microbe, parasite or virus in culture; assay type: cell-based, Pseudomonas aeruginosa; parameters: MIC, Survanta (5%) replicates: unit not given beside the values
E. coli ATCC 25922 = assay type: cell-based, Escherichia coli
L. monocytogenes = experiment: microbe, parasite or virus in culture
Summary of the method: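 Broth microdilution in MHB, 2-fold 12-point series from 128 or 64 down to 0.06 or 0.03 μg mL^−1, 5 × 10^5 CFU mL^−1. Extra runs in CAMHB per CLSI and in MHB with 1% agarose; n ≥ 6.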

[4] = P. aeruginosa ATCC 27853 control strain, n=2 to 6, mode or median
[5] = P. aeruginosa FADDI-070 MDR, PmxR, n=2 to 6, mode or median
[6] = L. monocytogenes ATCC 19112, MHB, mode of 6 replicates

## colistin
[1]; E. coli AID#172
  Noble agar dilution MIC: 1 µg/mL
[1]; E. coli AID#172, counts at 48 h, >TC = colonies too numerous to count
  Spontaneous frequency of resistance at 4× MIC: >TC
[1]; E. coli ATCC 25922
  Agar (Noble) Dilution MIC: 1 µg/mL
  Noble agar dilution MIC: 1 µg/mL
E. coli
  BMD MIC: >4 µg/mL
[2]
  Binding to DMPC with lipid A versus DMPC alone (SPR): Significant difference
[2]; 1uM
  SPR response, Difference (Mean1 - Mean2): -12.5563
  SPR response, Mean2 (10% lipid A-DMPC): 19.5933
[2]; 10uM
  SPR response, Difference (Mean1 - Mean2): -66.912
  SPR response, Mean2 (10% lipid A-DMPC): 125.433
[3]; P. aeruginosa ATCC 27853
  Agar (Noble) Dilution MIC: 2 µg/mL
  Noble agar dilution MIC: 2 µg/mL
[3]; P. aeruginosa UNT138-1
  Noble agar dilution MIC: 2 µg/mL
P. aeruginosa; P. aeruginosa ATCC 27853, control strain, BMD with 5% Survanta lung surfactant, mode, or median where no mode, n=4 to 6, where n=2 differs the higher value
  MIC, Survanta (5%): 0.25
P. aeruginosa; P. aeruginosa ATCC 27853, control strain, BMD with 5% Survanta lung surfactant, replicate 1
  MIC, Survanta (5%) replicates: 0.5
P. aeruginosa; P. aeruginosa ATCC 27853, control strain, BMD with 5% Survanta lung surfactant, replicate 2
  MIC, Survanta (5%) replicates: 0.5
P. aeruginosa; P. aeruginosa ATCC 27853, control strain, BMD with 5% Survanta lung surfactant, replicate 3
  MIC, Survanta (5%) replicates: 0.125
P. aeruginosa; P. aeruginosa ATCC 27853, control strain, BMD with 5% Survanta lung surfactant, replicate 4
  MIC, Survanta (5%) replicates: 0.125
P. aeruginosa; P. aeruginosa ATCC 27853, control strain, BMD with 50% human serum, mode, or median where no mode, n=4 to 6, where n=2 differs the higher value
  MIC, Serum (50%): 0.25
P. aeruginosa; P. aeruginosa ATCC 27853, control strain, BMD with 50% human serum, replicate 1
  MIC, Serum (50%) replicates: 0.5
P. aeruginosa; P. aeruginosa ATCC 27853, control strain, BMD with 50% human serum, replicate 2
  MIC, Serum (50%) replicates: 0.5
P. aeruginosa; P. aeruginosa ATCC 27853, control strain, BMD with 50% human serum, replicate 3
  MIC, Serum (50%) replicates: 0.25
P. aeruginosa; P. aeruginosa ATCC 27853, control strain, BMD with 50% human serum, replicate 4
  MIC, Serum (50%) replicates: 0.25
P. aeruginosa; P. aeruginosa ATCC 27853, control strain, BMD with 50% human serum, replicate 5
  MIC, Serum (50%) replicates: 0.125
P. aeruginosa; P. aeruginosa ATCC 27853, control strain, BMD with 50% human serum, replicate 6
  MIC, Serum (50%) replicates: 0.125
P. aeruginosa; [4]
  MIC, Serum (50%): 0.25 µg/mL
  MIC, Survanta (5%): 0.25 µg/mL
P. aeruginosa; P. aeruginosa FADDI-070, MDR, PmxR, BMD with 5% Survanta lung surfactant, mode, or median where no mode, n=4 to 6, where n=2 differs the higher value
  MIC, Survanta (5%): ≥64
P. aeruginosa; P. aeruginosa FADDI-070, MDR, PmxR, BMD with 5% Survanta lung surfactant, replicate 1
  MIC, Survanta (5%) replicates: 64
P. aeruginosa; P. aeruginosa FADDI-070, MDR, PmxR, BMD with 5% Survanta lung surfactant, replicate 2
  MIC, Survanta (5%) replicates: 64
P. aeruginosa; P. aeruginosa FADDI-070, MDR, PmxR, BMD with 5% Survanta lung surfactant, replicate 3
  MIC, Survanta (5%) replicates: >64
P. aeruginosa; P. aeruginosa FADDI-070, MDR, PmxR, BMD with 5% Survanta lung surfactant, replicate 4
  MIC, Survanta (5%) replicates: >64
P. aeruginosa; P. aeruginosa FADDI-070, MDR, PmxR, BMD with 50% human serum, replicate 1
  MIC, Serum (50%) replicates: 0.25
P. aeruginosa; P. aeruginosa FADDI-070, MDR, PmxR, BMD with 50% human serum, replicate 2
  MIC, Serum (50%) replicates: 0.125
P. aeruginosa; P. aeruginosa FADDI-070, MDR, PmxR, BMD with 50% human serum, where n=2 differs the higher value is recorded
  MIC, Serum (50%): 0.25
P. aeruginosa; [5]
  MIC, Serum (50%): 0.25 µg/mL
  MIC, Survanta (5%): ≥ 64 µg/mL
E. coli ATCC 25922; E. coli ATCC 25922, FDA control strain, BMD with 5% Survanta lung surfactant, mode, or median where no mode, n=4 to 6, where n=2 differs the higher value
  MIC, Survanta (5%): ≤0.06
E. coli ATCC 25922; E. coli ATCC 25922, MHB + 5% (v/v) lung surfactant, n=2 to 6, mode or median
  MIC, Survanta (5%): ≤ 0.06 µg/mL
L. monocytogenes; [6]
  BMD MIC: 16 µg/mL

## C[C@H]1COc2c(N3CCN(C)CC3)c(F)cc3c(=O)c(C(=O)O)cn1c23 [LEV, levofloxacin, reference compound]
[1]; ATCC25922, read-out: Agar (Noble) Dilution MIC, E. coli ATCC 25922
  MIC: 0.03 µg/mL (≈ 0.083 µM)
[1]; ATCC25922, read-out: Agar (Noble) Dilution MIC, E. coli AUD172
  MIC: 8 µg/mL (≈ 22.1 µM)
[3]; Pseudomonas aeruginosa, ATCC27853, read-out: Agar (Noble) Dilution MIC, P. aeruginosa ATCC 27853
  MIC: 2 µg/mL (≈ 5.53 µM)

## CC(C)[C@@H]1NC(=O)[C@H](Cc2ccc(O)cc2)NC(=O)[C@H](Cc2c[nH]c3ccccc23)NC(=O)[C@@H](NC(=O)[C@H](Cc2ccccc2)NC(=O)CN)CSSC[C@@H](C(=O)N[C@@H](CC(N)=O)C(=O)O)NC(=O)[C@H](CCCNC(=N)N)NC(=O)[C@H](CCCNC(=N)N)NC(=O)[C@H](Cc2ccc(O)cc2)NC(=O)[C@@H]2CSSC[C@H](NC1=O)C(=O)N[C@@H](C)C(=O)N[C@@H](CCCNC(=N)N)C(=O)N[C@@H](CCCNC(=N)N)C(=O)N[C@@H](CC(N)=O)C(=O)NCC(=O)N[C@@H](C)C(=O)N[C@@H](CCCNC(=N)N)C(=O)N[C@@H](C(C)C)C(=O)N2 [AA139] (HELM PEPTIDE1{G.F.C.W.Y.V.C.A.R.R.N.G.A.R.V.C.Y.R.R.C.N}$PEPTIDE1,PEPTIDE1,3:R3-20:R3|PEPTIDE1,PEPTIDE1,7:R3-16:R3$$$V2.0)
[1]; E. coli ATCC 25922
  Agar (Noble) Dilution MIC: 8 µg/mL
[1]; E. coli AUD172
  Agar (Noble) Dilution MIC: 8 µg/mL
[3]; P. aeruginosa ATCC 27853
  Agar (Noble) Dilution MIC: 8 µg/mL
[3]; P. aeruginosa UNT138-1
  Agar (Noble) Dilution MIC: 16 µg/mL
P. aeruginosa; [5]
  MIC, Serum (50%): 8 µg/mL (≈ 3.14 µM)
  MIC, Survanta (5%): 8 µg/mL (≈ 3.14 µM)
L. monocytogenes
  BMD MIC: 2 µg/mL

## polymyxin B [PolymyxinB, reference compound]
E. coli
  BMD MIC: 4 µg/mL
[2]
  Binding to DMPC with lipid A versus DMPC alone (SPR): Significant difference
[2]; 1uM
  SPR response, Difference (Mean1 - Mean2): -20.0727
  SPR response, Mean2 (10% lipid A-DMPC): 48.41
[2]; 10uM
  SPR response, Difference (Mean1 - Mean2): -95.8227
  SPR response, Mean2 (10% lipid A-DMPC): 222.033
L. monocytogenes; [6]
  BMD MIC: 4 µg/mL
